In patent publication US4965280A, “Antifungal carbinols” (E. I. Du Pont de Nemours and Company, priority 1989, dated 1990):

Legend:
VELVETLEAF = test: Test D; type: in vivo, Abutilon theophrasti
Method: The Corn and Sorghum Herbicide Test included the following species in both the preemergence and postemergence evaluations:
Postemergence plantings were grown in Sassafras sandy loam soil. Corn and soybeans were grown in separate 25 cm diameter containers. Sorghum and the seven grass weed species were grown in two 18 cm diameter containers, 4 species per container. The seven broadleaf weed species were also grown in two 18 cm diameter containers, 4 species in one container, 3 species in the second container. One additional planting of corn in an 18 cm diameter container was made. The soil surface of this additional container of corn was covered with the absorbent, perlite, before spray treatment so that test chemicals would enter the plant only via the foliage. The plants were grown 10-21 days, dependent upon the species and then sprayed postemergence with the test chemicals dissolved in a nonpytotoxic solvent.
Preemergence plantings were grown in fertilized Tama silt loam soil. These plantings are identical to those described in the postemergence section, with the exception of the corn planting having perlite covering the soil surface. These plantings were made the day of or the day before spraying the test chemicals dissolved in a nonphytotoxic solvent.
Treated plants and controls were maintained in the greenhouse for 2 to 4 weeks. Visual planting response ratings were made on a percentage scale of 0 to 100 in comparison with a control where 0=no injury, and 100=death.

JOHNSONGRASS = test: Test D; type: in vivo, Sorghum halepense
GREEN FOXTAIL = test: Test D; type: in vivo, Setaria viridis
FALL PANICUM = test: Test D; type: in vivo, Panicum dichotomiflorum
IVY MORNINGLORY = test: Test D; type: in vivo, Ipomoea hederacea
REDROOT PIGWEED = test: Test D; type: in vivo, Amaranthus retroflexus
JIMSONWEED = test: Test D; type: in vivo, Datura stramonium
WILLMS SOYBEANS = test: Test D; type: in vivo, Glycine max
LARGE CRABGRASS = test: Test D; type: in vivo, Digitaria sanguinalis
G4646 CORN = test: Test D Corn and Sorghum Herbicide Test; type: in vivo, Zea mays

C=C(c1ccccc1)C(O)(Cn1cncn1)c1ccc(Cl)cc1Cl (stereo not drawn) [Example 50, 2-(2,4-Dichlorophenyl)-3-phenyl-1-(1H-1,2,4-triazol-1-yl)-3-buten-2-ol]
plant response (VELVETLEAF; POSTEMERGENCE 0250 GM/HA): 0%
plant response (VELVETLEAF; POSTEMERGENCE 0500 GM/HA): 25%
plant response (VELVETLEAF; PREEMERGENCE 0064 GM/HA): 0%
plant response (VELVETLEAF; PREEMERGENCE 0125 GM/HA): 25%
plant response (VELVETLEAF; PREEMERGENCE 0250 GM/HA): 40%
plant response (VELVETLEAF; PREEMERGENCE 0500 GM/HA): 65%
plant response (JOHNSONGRASS; POSTEMERGENCE 0250 GM/HA): 20%
plant response (JOHNSONGRASS; POSTEMERGENCE 0500 GM/HA): 40%
plant response (JOHNSONGRASS; PREEMERGENCE 0064 GM/HA): 35%
plant response (JOHNSONGRASS; PREEMERGENCE 0125 GM/HA): 70%
plant response (JOHNSONGRASS; PREEMERGENCE 0250 GM/HA): 90%
plant response (JOHNSONGRASS; PREEMERGENCE 0500 GM/HA): 95%
plant response (GREEN FOXTAIL; POSTEMERGENCE 0250 GM/HA): 0%
plant response (GREEN FOXTAIL; POSTEMERGENCE 0500 GM/HA): 0%
plant response (GREEN FOXTAIL; PREEMERGENCE 0064 GM/HA): 0%
plant response (GREEN FOXTAIL; PREEMERGENCE 0125 GM/HA): 30%
plant response (GREEN FOXTAIL; PREEMERGENCE 0250 GM/HA): 50%
plant response (GREEN FOXTAIL; PREEMERGENCE 0500 GM/HA): 85%
plant response (FALL PANICUM; POSTEMERGENCE 0250 GM/HA): 20%
plant response (FALL PANICUM; POSTEMERGENCE 0500 GM/HA): 35%
plant response (FALL PANICUM; PREEMERGENCE 0064 GM/HA): 20%
plant response (FALL PANICUM; PREEMERGENCE 0125 GM/HA): 35%
plant response (FALL PANICUM; PREEMERGENCE 0250 GM/HA): 60%
plant response (FALL PANICUM; PREEMERGENCE 0500 GM/HA): 95%
plant response (IVY MORNINGLORY; POSTEMERGENCE 0250 GM/HA): 20%
plant response (IVY MORNINGLORY; POSTEMERGENCE 0500 GM/HA): 60%
plant response (IVY MORNINGLORY; PREEMERGENCE 0064 GM/HA): 0%
plant response (IVY MORNINGLORY; PREEMERGENCE 0125 GM/HA): 30%
plant response (IVY MORNINGLORY; PREEMERGENCE 0250 GM/HA): 40%
plant response (IVY MORNINGLORY; PREEMERGENCE 0500 GM/HA): 65%
plant response (REDROOT PIGWEED; POSTEMERGENCE 0250 GM/HA): 65%
plant response (REDROOT PIGWEED; POSTEMERGENCE 0500 GM/HA): 95%
plant response (REDROOT PIGWEED; PREEMERGENCE 0064 GM/HA): 0%
plant response (REDROOT PIGWEED; PREEMERGENCE 0125 GM/HA): 40%
plant response (REDROOT PIGWEED; PREEMERGENCE 0250 GM/HA): 85%
plant response (REDROOT PIGWEED; PREEMERGENCE 0500 GM/HA): 100%
plant response (JIMSONWEED; POSTEMERGENCE 0250 GM/HA): 20%
plant response (JIMSONWEED; POSTEMERGENCE 0500 GM/HA): 45%
plant response (JIMSONWEED; PREEMERGENCE 0064 GM/HA): 0%
plant response (JIMSONWEED; PREEMERGENCE 0125 GM/HA): 25%
plant response (JIMSONWEED; PREEMERGENCE 0250 GM/HA): 50%
plant response (JIMSONWEED; PREEMERGENCE 0500 GM/HA): 70%
plant response (WILLMS SOYBEANS; POSTEMERGENCE 0250 GM/HA): 35%
plant response (WILLMS SOYBEANS; POSTEMERGENCE 0500 GM/HA): 65%
plant response (WILLMS SOYBEANS; PREEMERGENCE 0064 GM/HA): 0%
plant response (WILLMS SOYBEANS; PREEMERGENCE 0125 GM/HA): 0%
plant response (WILLMS SOYBEANS; PREEMERGENCE 0250 GM/HA): 0%
plant response (WILLMS SOYBEANS; PREEMERGENCE 0500 GM/HA): 20%
plant response (LARGE CRABGRASS; POSTEMERGENCE 0250 GM/HA): 70%
plant response (LARGE CRABGRASS; POSTEMERGENCE 0500 GM/HA): 100%
plant response (LARGE CRABGRASS; PREEMERGENCE 0064 GM/HA): 40%
plant response (LARGE CRABGRASS; PREEMERGENCE 0125 GM/HA): 75%
plant response (LARGE CRABGRASS; PREEMERGENCE 0250 GM/HA): 100%
plant response (LARGE CRABGRASS; PREEMERGENCE 0500 GM/HA): 100%
plant response (G4646 CORN; POSTEMERGENCE 0250 GM/HA): 0%
plant response (G4646 CORN; POSTEMERGENCE 0500 GM/HA): 20%
plant response (G4646 CORN; PREEMERGENCE 0064 GM/HA): 0%
plant response (G4646 CORN; PREEMERGENCE 0125 GM/HA): 0%
plant response (G4646 CORN; PREEMERGENCE 0250 GM/HA): 0%
plant response (G4646 CORN; PREEMERGENCE 0500 GM/HA): 0%

C=C(c1ccccc1Cl)C(O)(Cn1cncn1)c1ccc(Cl)cc1Cl (stereo not drawn) [Example 33, 2-(2,4-Dichlorophenyl)-3-(2-chlorophenyl)-1-(1H-1,2,4-triazol-1-yl)-3-buten-2-ol]
plant response (VELVETLEAF; POSTEMERGENCE 0250 GM/HA): 0%
plant response (VELVETLEAF; POSTEMERGENCE 0500 GM/HA): 0%
plant response (VELVETLEAF; POSTEMERGENCE 1000 GM/HA): 0%
plant response (VELVETLEAF; PREEMERGENCE 0250 GM/HA): 0%
plant response (VELVETLEAF; PREEMERGENCE 0500 GM/HA): 0%
plant response (VELVETLEAF; PREEMERGENCE 1000 GM/HA): 0%
plant response (JOHNSONGRASS; POSTEMERGENCE 0250 GM/HA): 0%
plant response (JOHNSONGRASS; POSTEMERGENCE 0500 GM/HA): 0%
plant response (JOHNSONGRASS; POSTEMERGENCE 1000 GM/HA): 0%
plant response (JOHNSONGRASS; PREEMERGENCE 0250 GM/HA): 0%
plant response (JOHNSONGRASS; PREEMERGENCE 0500 GM/HA): 0%
plant response (JOHNSONGRASS; PREEMERGENCE 1000 GM/HA): 0%
plant response (GREEN FOXTAIL; POSTEMERGENCE 0250 GM/HA): 0%
plant response (GREEN FOXTAIL; POSTEMERGENCE 0500 GM/HA): 0%
plant response (GREEN FOXTAIL; POSTEMERGENCE 1000 GM/HA): 0%
plant response (GREEN FOXTAIL; PREEMERGENCE 0250 GM/HA): 0%
plant response (GREEN FOXTAIL; PREEMERGENCE 0500 GM/HA): 0%
plant response (GREEN FOXTAIL; PREEMERGENCE 1000 GM/HA): 0%
plant response (FALL PANICUM; POSTEMERGENCE 0250 GM/HA): 0%
plant response (FALL PANICUM; POSTEMERGENCE 0500 GM/HA): 0%
plant response (FALL PANICUM; POSTEMERGENCE 1000 GM/HA): 0%
plant response (FALL PANICUM; PREEMERGENCE 0250 GM/HA): 0%
plant response (FALL PANICUM; PREEMERGENCE 0500 GM/HA): 0%
plant response (FALL PANICUM; PREEMERGENCE 1000 GM/HA): 0%
plant response (IVY MORNINGLORY; POSTEMERGENCE 0250 GM/HA): 0%
plant response (IVY MORNINGLORY; POSTEMERGENCE 0500 GM/HA): 0%
plant response (IVY MORNINGLORY; POSTEMERGENCE 1000 GM/HA): 0%
plant response (IVY MORNINGLORY; PREEMERGENCE 0250 GM/HA): 0%
plant response (IVY MORNINGLORY; PREEMERGENCE 0500 GM/HA): 0%
plant response (IVY MORNINGLORY; PREEMERGENCE 1000 GM/HA): 0%
plant response (REDROOT PIGWEED; POSTEMERGENCE 0250 GM/HA): 0%
plant response (REDROOT PIGWEED; POSTEMERGENCE 0500 GM/HA): 0%
plant response (REDROOT PIGWEED; POSTEMERGENCE 1000 GM/HA): 0%
plant response (REDROOT PIGWEED; PREEMERGENCE 0250 GM/HA): 0%
plant response (REDROOT PIGWEED; PREEMERGENCE 0500 GM/HA): 0%
plant response (REDROOT PIGWEED; PREEMERGENCE 1000 GM/HA): 0%
plant response (JIMSONWEED; POSTEMERGENCE 0250 GM/HA): 0%
plant response (JIMSONWEED; POSTEMERGENCE 0500 GM/HA): 0%
plant response (JIMSONWEED; POSTEMERGENCE 1000 GM/HA): 0%
plant response (JIMSONWEED; PREEMERGENCE 0250 GM/HA): 0%
plant response (JIMSONWEED; PREEMERGENCE 0500 GM/HA): 0%
plant response (JIMSONWEED; PREEMERGENCE 1000 GM/HA): 0%
plant response (WILLMS SOYBEANS; POSTEMERGENCE 0250 GM/HA): 0%
plant response (WILLMS SOYBEANS; POSTEMERGENCE 0500 GM/HA): 0%
plant response (WILLMS SOYBEANS; POSTEMERGENCE 1000 GM/HA): 0%
plant response (WILLMS SOYBEANS; PREEMERGENCE 0250 GM/HA): 0%
plant response (WILLMS SOYBEANS; PREEMERGENCE 0500 GM/HA): 0%
plant response (WILLMS SOYBEANS; PREEMERGENCE 1000 GM/HA): 0%
plant response (LARGE CRABGRASS; POSTEMERGENCE 0250 GM/HA): 0%
plant response (LARGE CRABGRASS; POSTEMERGENCE 0500 GM/HA): 0%
plant response (LARGE CRABGRASS; POSTEMERGENCE 1000 GM/HA): 0%
plant response (LARGE CRABGRASS; PREEMERGENCE 0250 GM/HA): 0%
plant response (LARGE CRABGRASS; PREEMERGENCE 0500 GM/HA): 0%
plant response (LARGE CRABGRASS; PREEMERGENCE 1000 GM/HA): 0%
plant response (G4646 CORN; POSTEMERGENCE 0250 GM/HA): 0%
plant response (G4646 CORN; POSTEMERGENCE 0500 GM/HA): 0%
plant response (G4646 CORN; POSTEMERGENCE 1000 GM/HA): 0%
plant response (G4646 CORN; PREEMERGENCE 0250 GM/HA): 0%
plant response (G4646 CORN; PREEMERGENCE 0500 GM/HA): 0%
plant response (G4646 CORN; PREEMERGENCE 1000 GM/HA): 0%
